Source: patent publication US20170368104A1, “INDUCTION OF TOLERANCE IN LUNG ALLOGRAFT TRANSPLANTATION” (Washington University, priority 2013, published 2017)

system: B6 CD45.1^+ CD4^+ T cells; test: In vitro mixed lymphocyte reaction, CD4+ responders; type: cell-based, mouse; conditions: agent added to MLR containing accepting allograft-derived CD8+ T cells
Description: In vitro mixed lymphocyte reactions were performed in round bottom 96-well plates using 3×10^5 T cell-depleted Balb/c splenocyte stimulators with 10^5 CFSE-labeled B6 CD45.1^+ CD4^+ or CD8^+ T cell responders and, as indicated, 10^5 CD8^+ T cells isolated from lungs or spleens of immunosuppressed B6 recipients of Balb/c allografts. For some experiments central and effector memory T cells were sorted from lungs of resting mice. T cell responses were evaluated flow cytometrically on day 5. All compounds inhibiting the metabolism of essential amino acids were obtained from Sigma-Aldrich (St. Louis, Mo.) and added to the co-cultures as previously described for the duration of the experiment (41).

| SMILES | CD8+ T cell-mediated suppression of CD4+ T lymphocyte proliferation |
| --- | --- |
| N=C(N)NCCC[C@H](N)C(=O)O [L-arginine] | did not reverse |
| CC(=N)NCCCC[C@H](N)C(=O)O.Cl.Cl [L-nil, N6-(1-iminoethyl)-L-lysine, dihydrochloride] | able to attenuate |
| Cn1cc(C[C@H](N)C(=O)O)c2ccccc21 [1-methyl-tryptophan] | did not affect proliferation |
| NC(=NCCC[C@H](N)C(=O)O)N[N+](=O)[O-] [L-NNA, NG-nitro-L-Arginine; L-NG-Nitroarginine] | able to attenuate |
| CCC[C@H](N)C(=O)O [L-novaline] | did not affect proliferation |
